Assay results taken from patent US20160000766A1, “HDAC INHIBITORS TO TREAT CHARCOT-MARIE-TOOTH DISEASE” (VIB VZW, priority 2010, published 2016).
Entries after “also recorded” stand apart in the source; their conditions may differ.

What was measured:
acetylated α-tubulin = assay: Western blots of acetylated α-tubulin in sciatic nerve and spinal cord of treated mice; type: in vivo, mouse; settings: daily for 21 days, TSA 10 mg per kg, tubastatin A 25 mg per kg; for acetylated α-tubulin amounts in peripheral nerves: sciatic nerve
Description: (§1) FIG. 8: HDAC6 inhibition rescues axonal transport defects and restores the CMT2 phenotype. Panels a and b: Axonal transport of mitochondria measured in DRG neurons isolated from ten-month-old HSPB1^S135F-expressing mice after 12 hours of treatment with TSA (0.4 μM), tubacin (2 μM), tubastatin A (1 μM) or an equivalent amount of DMSO. Total number of (Panel a) and number of moving (Panel b) mitochondria (per 200 seconds and per 100 μm) were quantified. n=20 to 30 cells isolated from three different mice for each condition. *P<0.05; **P<0.01; ***P<0.0001. Panels c and d: Western blots of sciatic nerve and spinal cord extracts from symptomatic eight-month-old HSPB1^S135F-expressing mice treated daily for three weeks with TSA (10 mg per kg body weight; Panel c) or tubastatin A (25 mg per kg body weight; Panel d) probed against acetylated tubulin. Equal loading was confirmed with α-tubulin staining. n=3. Panels e and f: Quantifications of optical density (OD) of acetylated tubulin on Western blots of sciatic nerve (Panel e) and spinal cord (Panel f) extracts of symptomatic HSPB1^S135F-expressing mice treated with TSA or tubastatin A. n=3. Panel g: Motor performance on an accelerating rotarod of HSPB1^S135F-expressing mice treated for three weeks with TSA or tubastatin A. Panels h and i: Effect of the TSA or tubastatin A treatments of HSPB1^S135F-expressing mice on the amplitudes of CMAPs (Panel h) or SNAPs (Panel i). n=3 to 6 mice per group. […]; **P<0.001; ***P<0.0001. One-way ANOVA was used to analyze the data in Panels a, b, and e through i. Data are presented as means±s.e.m.
Next, symptomatic HSPB1^S135F-expressing mice were treated for 21 days with either a nonspecific or a specific HDAC6 inhibitor.

[1] = test system: DRG neurons isolated from symptomatic HSPB1^S135F mice; assay: Axonal transport of mitochondria in cultured DRG neurons treated in vitro with HDAC inhibitors; type: cell-based, mouse; settings: for number of moving mitochondria / total numbers of mitochondria / effectiveness on total and moving mitochondria relative to TSA: 12 hours treatment; for number of moving mitochondria / total numbers of mitochondria: TSA 0.4 μM, tubacin 2 μM, tubastatin A 1 μM, vs DMSO; for effectiveness on total and moving mitochondria relative to TSA: FIG. 8, Panels a and b
Description: (§2) Panels a and b: Axonal transport of mitochondria was assessed in DRG neurons isolated from symptomatic (eight-month-old) HSPB1^S135F mice after 12 hours incubation with various concentrations (0, 0.25, 0.50 or 1.00 μM) of Tubastatin A. Panel a: Quantification of the total number of mitochondria at various concentrations of Tubastatin A. One-way ANOVA. P>0.05. Panel b: Quantification of the number of moving mitochondria at different concentrations of Tubastatin A. One-way ANOVA. * P<0.05; ** P<0.001; P<0.0001. Panel c: Quantification of the integrated density of the acetylated tubulin signal along neurites at various concentrations of Tubastatin A. n=25 to 30 cells/condition. One-way ANOVA. * P<0.05.
as §1
(§3) It has previously been shown that the intracellular distribution of specific cargoes, such as mutant HSPB1 itself, but also neurofilament and p150, was disturbed in cortical neurons transfected with HSPB1^P182L (ref. 12). In order to study effects of mutant HSPB1 on axonal transport, dorsal root ganglion (DRG) neurons from adult transgenic mice were isolated and analyzed mitochondrial transport in these neurons after two days in culture. Mitochondrial movement was visualized by loading DRG neurons with a selective mitochondrial marker (MITOTRAcKER®) and by live video imaging (FIG. 6, Panel a). Kymographs resulting from time compression of video images were used to quantify the total number of mitochondria present in the neurites and to discriminate antero- and retrogradely moving from stationary mitochondria (FIG. 6, Panel a, right-side panels).
Treatment of DRG neurons isolated from symptomatic HSPB1^[…]-expressing mice with TSA, tubacin or tubastatin A increased total numbers of mitochondria FIG. 8, Panel a) and restored the number of moving mitochondria (FIG. 8, Panel b).

[2] = test system: DRG neurons isolated from symptomatic HSPB1^S135F-expressing mice; assay: Ex vivo axonal transport of mitochondria in DRG neurons isolated from treated mice; design: species or system mouse; settings: after three weeks of in vivo treatment
Description: (§4) FIG. 9: TSA or tubastatin A treatment leads to muscle reinnervation and rescues axonal transport defects. Panels a and b: Effect of vehicle (DMSO), TSA or tubastatin A treatment on the innervation level of the gastrocnemius muscle in symptomatic, eight-month-old HSPB1^S135F-expressing mice. The number of visible neuromuscular junctions (NMJs) per axon in each field of view (Panel a) and the relative quantity of denervated neuromuscular junctions (Panel b) were determined after staining gastrocnemius muscle with antibodies against α-bungarotoxin and neurofilament heavy chain. n=2 or 3 mice per condition. ***P<0.0001. Panels c and d: Axonal transport of mitochondria measured in cultured DRG neurons isolated from symptomatic HSPB1^S135F-expressing mice after three weeks of treatment with TSA or tubastatin A. Total number (Panel c) and number of moving mitochondria (Panel d) were quantified (per 200 seconds and 100 μm). n=20 to 25 cells isolated from three different mice in each condition. *P<0.05; ***P<0.0001. One-way ANOVA was used to analyze the data. Tukey's HSD test was used for post hoc analysis in Panels a through d. Data are presented as means±s.e.m.
as §3
Finally, we measured ex vivo axonal transport in DRG neurons isolated from treated mice.

[3] = test system: symptomatic HSPB1^S135F-expressing mice; assay: Motor performance on accelerating rotarod of treated HSPB1^S135F-expressing mice; type: in vivo, mouse; settings: for motor performance (accelerating rotarod): treated for three weeks, TSA 10 mg per kg, tubastatin A 25 mg per kg; for CMT2 phenotype at the behavioral and electrophysiological levels: treatment of mutant HSPB1 mice (Example 9)
Description: as §1
Next, general motor performance was assessed using an accelerating rotarod. All mice could stay on the rotarod (300 seconds) until the age of six months. From that age on, both mutant HSPB1 lines started to fail on the rotarod test and a progressive reduction in performance was observed over time (P<0.0001; FIG. 1, Panel c).
(§5) It was also observed that the loss of acetylcholine-receptor clusters at the end plates in gastrocnemius muscle was restored (FIG. 9, Panel a) and that the level of denervation of the remaining neuromuscular junctions was decreased (FIG. 9, Panel b). These observations indicate that increasing acetylated α-tubulin abundance in peripheral nerves leads to re-innervation of muscles.

[4] = test system: symptomatic HSPB1^S135F-expressing mice; assay: Innervation level of the gastrocnemius muscle (neuromuscular junctions) in treated mice; type: in vivo, mouse; settings: treated for three weeks; eight-month-old mice
Description: as §4, §5

[5] = test system: symptomatic HSPB1^S135F-expressing mice; assay: Nerve conduction studies (CMAP and SNAP amplitudes) in treated mice; type: in vivo, mouse; settings: treated for three weeks; TSA 10 mg per kg, tubastatin A 25 mg per kg
Description: as §1
Nerve conduction studies are routinely done on CMT patients to discriminate demyelinating (type 1) from axonal (type 2) forms, as well as to assess whether patients show either a mixed sensorimotor (CMT2) or a pure motor neuropathy (distal HMN). Therefore, nerve conduction studies were performed on transgenic HSPB1 mice using sub-dermal electrodes, either at the level of the gastrocnemius muscle to measure compound muscle action potentials (CMAPs), or in the distal end of the tail to record sensory nerve action potentials (SNAPs). […] The decrease in CMAP amplitudes in function of age was more pronounced in HSPB1^P182L compared to HSPB1^S135F mice as assessed by the slopes (slopeS135F=−4.66±0.32; slopeP182L=−6.23±0.93; P=0.004; FIG. 4, Panel c). CMAP latencies were unaffected, confirming the axonal nature of the motor neuropathy in both mutant HSPB1 lines (FIG. 4, Panel d).
It was also observed that the loss of acetylcholine-receptor clusters at the end plates in gastrocnemius muscle was restored (FIG. 9, Panel a) and that the level of denervation of the remaining neuromuscular junctions was decreased (FIG. 9, Panel b). […]

acetylated tubulin = assay: Acetylated tubulin signal along neurites of cultured DRG neurons; type: cell-based, mouse; settings: 12 hours incubation; 0, 0.25, 0.50 or 1.00 μM
Description: as §2

Row | SMILES | acetylated α-tubulin amounts in spinal cord (acetylated α-tubulin) | overall α-tubulin abundance (acetylated α-tubulin) | acetylated α-tubulin amounts in peripheral nerves (acetylated α-tubulin) | number of moving mitochondria [1] | total numbers of mitochondria [1] | number of moving mitochondria (ex vivo) [2] | motor performance (accelerating rotarod) [3] | CMT2 phenotype at the behavioral and electrophysiological levels [3] | level of denervation of the remaining neuromuscular junctions [4] | loss of acetylcholine-receptor clusters at the end plates in gastrocnemius muscle [4] | CMAP amplitudes [5] | SNAP amplitudes [5] | effectiveness on total and moving mitochondria relative to TSA [1] | acetyl-tubulin levels in vitro (integrated density along neurites) (acetylated tubulin) | axonal transport of mitochondria, dose dependence ([1]; 12 hours incubation, 0, 0.25, 0.50 or 1.00 μM, eight-month-old HSPB1^S135F mice) | mitochondrial motility, overall rescue and comparison with TSA (ex vivo) [2] | total number of mitochondria (ex vivo) [2]
1 | CC(/C=C/C(=O)NO)=C\[C@@H](C)C(=O)c1ccc(N(C)C)cc1 [TSA, Trichostatin A] | also increased | did not affect | significant increase | restored | increased | increased significantly | significantly increased | partially restored | decreased | restored | increased | increased |  |  |  |  | 
2 | O=C(CCCCCCC(=O)Nc1ccc([C@H]2O[C@@H](CSc3nc(-c4ccccc4)c(-c4ccccc4)o3)C[C@@H](c3ccc(CO)cc3)O2)cc1)NO [tubacin] |  |  |  | restored | increased |  |  |  |  |  |  |  | more effective compared to TSA |  |  |  | 
3 | CN1CCc2c(c3ccccc3n2Cc2ccc(C(=O)NO)cc2)C1 [tubastatin A] |  | did not affect | significant increase | restored | increased | increased significantly | significantly increased | partially restored | decreased | restored | increased | increased | more effective compared to TSA | increased | dose-dependently rescued | more effective than TSA; also recorded: complete rescue | increased
